Measurements reported in ChEMBL document CHEMBL1201862, “PubChem BioAssay data set” (2004).
Active and inactive are the calls of the source.

Legend:
[1] = luciferase reporter signal suppression in cells – H4 neuroglioma cells, luminescence, dose response (AID 1990); assay type: functional, cell-based
[2] = biological target: T1, Luciferin 4-monooxygenase (Photinus pyralis, UniProt P08659); assay: Counter Screen for Luciferase-based Assay Positives. [Related pubchem assays: 620, 618, 411 ]
[3] = Luminescence Cell-Based Dose Response HTS to Identify Inhibitors of 5'UTR Stem-Loop Driven Prion Protein mRNA Translation in H4 Neuroglioblastoma Cells. [Related pubchem assays: 1827 (Project Summary), 1813 (Primary HTS)]; assay type: functional
[4] = alpha-synuclein stem-loop luciferase translation blockers – H4 neuroglioma cells, luminescence, confirmation (AID 1988); assay type: functional, cell-based
Large T antigen = Large T antigen (Simian virus 40, UniProt P03070); assay type: functional, Betapolyomavirus macacae;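 further: Confirmatory-stage PubChem screen for compounds that inhibit SV40 T antigen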
HT-1080 = assay: HT1080 cell viability loss – fluorescence readout (AID 620); assay type: functional, cell-based; conditions: Homo sapiens
[5] = biological target: FAD-linked sulfhydryl oxidase ALR (Homo sapiens, UniProt P55789); assay: ALR-catalysed DTT oxidation blockers – biochemical, H2O2 detection, luminescence, cherry-pick, dose response (AID 493248)
[6] = biological target: T2, Microphthalmia-associated transcription factor (Homo sapiens, UniProt O75030); assay: reducers of TRPM1 reporter luminescence, concentration series – cell-based, SK-MEL-5, cherry-picked, set 3, MITF inhibitor project, dose response (AID 493073); assay type: functional;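 further: SK-MEL-5 melanoma cells with luciferase driven by the MITF target TRPM1 promoter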
T2 sequence (O75030 whole entry): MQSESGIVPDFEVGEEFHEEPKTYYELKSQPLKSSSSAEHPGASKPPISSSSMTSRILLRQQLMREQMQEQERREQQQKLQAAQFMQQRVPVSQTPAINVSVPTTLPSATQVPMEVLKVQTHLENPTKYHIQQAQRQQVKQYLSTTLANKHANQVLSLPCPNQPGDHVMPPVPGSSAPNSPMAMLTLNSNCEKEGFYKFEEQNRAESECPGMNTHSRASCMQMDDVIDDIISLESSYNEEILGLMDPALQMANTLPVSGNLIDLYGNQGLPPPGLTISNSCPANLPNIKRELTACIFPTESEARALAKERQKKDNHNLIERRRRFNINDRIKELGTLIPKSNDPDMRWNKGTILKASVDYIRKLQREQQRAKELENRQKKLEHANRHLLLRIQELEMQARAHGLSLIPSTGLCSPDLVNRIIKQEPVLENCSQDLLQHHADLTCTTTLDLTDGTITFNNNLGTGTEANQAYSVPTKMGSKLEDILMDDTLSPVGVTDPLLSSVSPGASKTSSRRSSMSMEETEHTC

[7] = biological target: T3, Ubiquitin-conjugating enzyme E2 N (Homo sapiens, UniProt P61088); assay type: functional;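 further: Dose-response confirmation in a TR-FRET assay detecting UBC13-driven polyubiquitin chain formation, inhibition measured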
T3 sequence (P61088 whole entry): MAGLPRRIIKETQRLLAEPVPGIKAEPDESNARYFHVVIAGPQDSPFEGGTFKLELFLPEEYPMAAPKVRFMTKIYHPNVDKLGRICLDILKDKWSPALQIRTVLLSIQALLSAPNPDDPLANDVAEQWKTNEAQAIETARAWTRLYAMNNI

[8] = biological target: Voltage-dependent T-type calcium channel subunit alpha-1H (Homo sapiens, UniProt O95180); assay type: functional;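 further: channel activity triggered by adding a high calcium stimulation buffer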
[9] = biological target: T1, Luciferin 4-monooxygenase; assay: inhibition of purified Photinus pyralis luciferase – biochemical, luminescence, dose response (AID 1891)
[10] = Luminescence Cell-Based Dose Confirmation HTS to Identify Inhibitors of Platelet Dense Granule Release. [Related pubchem assays: 1663 (Primary HTS), 1678 (Summary of Project)]; assay type: functional
[11] = biological target: DNA dC->dU-editing enzyme APOBEC-3A (Homo sapiens, UniProt P31941); assay: Dose Response confirmation of small molecule APOBEC3A DNA Deaminase Inhibitors via a fluorescence-based single-stranded DNA deaminase assay. [Related pubchem assays (depositor defined):AID493011, AID493024]; assay type: functional
[12] = biological target: T4, DNA dC->dU-editing enzyme APOBEC-3G (Homo sapiens, UniProt Q9HC16); assay type: functional
[13] = Luminescence Cell-Based Dose Response to Identify Activators of 5'UTR Stem-Loop Driven Prion Protein mRNA Translation in H4-C Neuroglioblastoma Cells. [Related pubchem assays: 1829 (Project Summary), 1814 (Primary HTS)]; assay type: functional
[14] = Luminescence Cell-Based Dose Confirmation HTS to Identify Activators of 5'UTR Stem-Loop Driven Alpha-Synuclein mRNA Translation in H4 Neuroglioblastoma Cells. [Related pubchem assays: 1829 (Project Summary), 1814 (Primary HTS)]; assay type: functional
[15] = Luminescence Cell-Based Dose Response HTS to Identify Activators of Luciferase Translation or Activity in H4 […] Cells. [Related pubchem assays: 1829 (Project Summary), 1814 (Primary HTS)]; assay type: functional
H4 = assay: Luminescence Cell-Based Dose Response HTS to Identify Activators of 5'UTR Stem-Loop Driven Prion Protein mRNA Translation in H4 Neuroglioblastoma Cells. [Related pubchem assays: 1829 (Project Summary), 1814 (Primary HTS)]; assay type: functional; conditions: Homo sapiens
[16] = Luminescence Cell-Based Dose Response to Identify Activators of Luciferase Translation or Activity in H4-C Neuroglioblastoma Cells. [Related pubchem assays: 1829 (Project Summary), 1814 (Primary HTS)]; assay type: functional
[17] = Luminescence Cell-Based Dose Confirmation to Identify Activators of 5'UTR Stem-Loop Driven Alpha-Synuclein mRNA Translation in H4 Neuroglioblastoma Cells. [Related pubchem assays: 1829 (Project Summary), 1814 (Primary HTS)]; assay type: functional
[18] = biological target: Photoreceptor-specific nuclear receptor (Homo sapiens, UniProt Q9Y5X4); assay type: functional;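 further: potency for compounds that break the NR2E3 corepressor complex and count as activators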
[19] = biological target: Peroxisome proliferator-activated receptor gamma/Nuclear receptor corepressor 2 (Homo sapiens, UniProt P37231+Q9Y618); assay type: functional
HeLa = assay: ATP-based viability loss in HeLa cells – cell-based, CellTiter-Glo luminescence, cherry-pick samples, cytotoxicity control for MITF activator project, dose response (AID 540259); assay type: functional; conditions: Homo sapiens
[20] = Trypanosoma cruzi growth suppression in host cells – NIH3T3 host cells, beta-gal luminescence, confirmation (AID 2044); assay type: functional, cell-based;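 further: intracellular parasites grown in NIH/3T3 mouse fibroblasts as host cells; luminescent beta-galactosidase reporter signal from transgenic T. cruzi replicating inside host cells; inhibitors lower the luminescence signal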
[21] = NIH3T3 cell viability loss – ATP luminescence, mouse fibroblasts, counter-screen, dose response (AID 2010); assay type: functional, cell-based;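 further: cells exposed to compound for about 90 hours before reading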
[22] = Luminescence Cell-Based Dose Retest to Confirm Inhibitors of Cancer Stem Cells. [Related pubchem assays (depositor defined):AID2717, AID2721]; assay type: functional; conditions: Homo sapiens
HEK293 = assay: EBV LMP1 TES2 canonical NF-kB signalling blockers – cell-based, HEK293, luciferase, cherry-pick, dose response (AID 588343); assay type: functional; conditions: Homo sapiens
[23] = biological target: T4, DNA dC->dU-editing enzyme APOBEC-3G; assay: Dose Response confirmation of small molecule APOBEC3G DNA Deaminase Inhibitors via a fluorescence-based single-stranded DNA deaminase assay. [Related pubchem assays (depositor defined):AID493012, AID493028]; assay type: functional
Protein skinhead-1 = biological target: T5, Protein skinhead-1 (Caenorhabditis elegans, UniProt P34707); assay type: functional
T5 sequence (P34707 whole entry): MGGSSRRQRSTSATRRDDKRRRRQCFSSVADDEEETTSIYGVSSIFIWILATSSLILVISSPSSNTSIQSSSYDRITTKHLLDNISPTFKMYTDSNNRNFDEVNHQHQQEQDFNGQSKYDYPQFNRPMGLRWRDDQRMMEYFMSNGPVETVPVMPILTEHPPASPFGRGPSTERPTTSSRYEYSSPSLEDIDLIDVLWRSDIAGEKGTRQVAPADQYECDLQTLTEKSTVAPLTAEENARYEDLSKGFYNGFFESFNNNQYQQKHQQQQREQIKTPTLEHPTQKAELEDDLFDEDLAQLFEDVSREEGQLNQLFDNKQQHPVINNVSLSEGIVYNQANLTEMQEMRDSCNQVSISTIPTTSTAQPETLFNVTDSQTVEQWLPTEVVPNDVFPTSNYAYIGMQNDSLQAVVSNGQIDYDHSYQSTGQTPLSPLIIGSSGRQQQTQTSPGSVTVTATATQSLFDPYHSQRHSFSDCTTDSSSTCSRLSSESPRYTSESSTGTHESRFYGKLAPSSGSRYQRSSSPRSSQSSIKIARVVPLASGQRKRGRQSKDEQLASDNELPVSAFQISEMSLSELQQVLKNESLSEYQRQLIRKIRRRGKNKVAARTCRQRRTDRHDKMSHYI

Cytochrome P450 1A2 = biological target: T6, Cytochrome P450 1A2 (Homo sapiens, UniProt P05177);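 further: PubChem cytochrome P450 panel assay, CYP1A2 panel member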
T6 sequence (P05177 whole entry): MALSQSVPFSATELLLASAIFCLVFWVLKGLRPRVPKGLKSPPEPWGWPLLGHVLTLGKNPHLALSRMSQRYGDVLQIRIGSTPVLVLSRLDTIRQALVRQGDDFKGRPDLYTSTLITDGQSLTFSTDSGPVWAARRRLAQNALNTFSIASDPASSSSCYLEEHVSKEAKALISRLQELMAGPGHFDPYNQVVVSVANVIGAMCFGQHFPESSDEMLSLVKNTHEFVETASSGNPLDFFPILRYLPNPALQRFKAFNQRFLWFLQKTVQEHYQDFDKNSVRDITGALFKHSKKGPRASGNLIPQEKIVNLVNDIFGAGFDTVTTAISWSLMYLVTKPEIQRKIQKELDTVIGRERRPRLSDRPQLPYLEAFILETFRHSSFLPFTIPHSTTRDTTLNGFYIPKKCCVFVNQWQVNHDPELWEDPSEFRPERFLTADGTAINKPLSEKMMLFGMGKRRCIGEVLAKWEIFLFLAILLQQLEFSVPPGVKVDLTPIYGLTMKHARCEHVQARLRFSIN

Cytochrome P450 2C9 = Cytochrome P450 2C9 (Homo sapiens, UniProt P11712)
Sequence of Cytochrome P450 2C9 (P11712 whole entry): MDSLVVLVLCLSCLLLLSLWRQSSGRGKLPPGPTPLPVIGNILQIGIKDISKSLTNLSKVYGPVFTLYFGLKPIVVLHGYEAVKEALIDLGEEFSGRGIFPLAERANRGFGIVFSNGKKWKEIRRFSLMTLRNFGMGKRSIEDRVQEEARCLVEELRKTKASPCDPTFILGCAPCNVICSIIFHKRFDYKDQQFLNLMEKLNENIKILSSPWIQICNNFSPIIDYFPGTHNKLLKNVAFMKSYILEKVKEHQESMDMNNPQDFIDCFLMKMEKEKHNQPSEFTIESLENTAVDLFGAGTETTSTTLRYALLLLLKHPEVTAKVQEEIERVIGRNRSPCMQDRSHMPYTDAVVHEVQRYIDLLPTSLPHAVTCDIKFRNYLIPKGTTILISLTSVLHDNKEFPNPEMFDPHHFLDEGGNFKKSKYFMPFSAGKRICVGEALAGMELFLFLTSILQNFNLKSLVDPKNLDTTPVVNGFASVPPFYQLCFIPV

T1 sequence (P08659 whole entry): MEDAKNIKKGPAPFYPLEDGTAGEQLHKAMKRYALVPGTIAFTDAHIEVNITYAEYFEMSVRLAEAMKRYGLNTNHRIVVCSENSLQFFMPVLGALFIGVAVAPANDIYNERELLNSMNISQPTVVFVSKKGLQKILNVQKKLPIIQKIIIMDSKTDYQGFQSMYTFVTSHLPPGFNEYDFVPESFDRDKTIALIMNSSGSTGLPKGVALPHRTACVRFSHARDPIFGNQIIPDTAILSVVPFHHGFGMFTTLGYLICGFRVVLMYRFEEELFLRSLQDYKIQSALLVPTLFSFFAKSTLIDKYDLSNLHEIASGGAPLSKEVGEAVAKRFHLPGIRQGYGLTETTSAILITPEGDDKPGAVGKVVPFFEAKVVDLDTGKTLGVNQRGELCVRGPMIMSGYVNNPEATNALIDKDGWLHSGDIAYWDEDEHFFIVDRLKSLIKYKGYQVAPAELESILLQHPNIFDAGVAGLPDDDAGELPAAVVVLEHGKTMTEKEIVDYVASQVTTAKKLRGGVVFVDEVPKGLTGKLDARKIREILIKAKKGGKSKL
Sequence of Voltage-dependent T-type calcium channel subunit alpha-1H (O95180 whole entry): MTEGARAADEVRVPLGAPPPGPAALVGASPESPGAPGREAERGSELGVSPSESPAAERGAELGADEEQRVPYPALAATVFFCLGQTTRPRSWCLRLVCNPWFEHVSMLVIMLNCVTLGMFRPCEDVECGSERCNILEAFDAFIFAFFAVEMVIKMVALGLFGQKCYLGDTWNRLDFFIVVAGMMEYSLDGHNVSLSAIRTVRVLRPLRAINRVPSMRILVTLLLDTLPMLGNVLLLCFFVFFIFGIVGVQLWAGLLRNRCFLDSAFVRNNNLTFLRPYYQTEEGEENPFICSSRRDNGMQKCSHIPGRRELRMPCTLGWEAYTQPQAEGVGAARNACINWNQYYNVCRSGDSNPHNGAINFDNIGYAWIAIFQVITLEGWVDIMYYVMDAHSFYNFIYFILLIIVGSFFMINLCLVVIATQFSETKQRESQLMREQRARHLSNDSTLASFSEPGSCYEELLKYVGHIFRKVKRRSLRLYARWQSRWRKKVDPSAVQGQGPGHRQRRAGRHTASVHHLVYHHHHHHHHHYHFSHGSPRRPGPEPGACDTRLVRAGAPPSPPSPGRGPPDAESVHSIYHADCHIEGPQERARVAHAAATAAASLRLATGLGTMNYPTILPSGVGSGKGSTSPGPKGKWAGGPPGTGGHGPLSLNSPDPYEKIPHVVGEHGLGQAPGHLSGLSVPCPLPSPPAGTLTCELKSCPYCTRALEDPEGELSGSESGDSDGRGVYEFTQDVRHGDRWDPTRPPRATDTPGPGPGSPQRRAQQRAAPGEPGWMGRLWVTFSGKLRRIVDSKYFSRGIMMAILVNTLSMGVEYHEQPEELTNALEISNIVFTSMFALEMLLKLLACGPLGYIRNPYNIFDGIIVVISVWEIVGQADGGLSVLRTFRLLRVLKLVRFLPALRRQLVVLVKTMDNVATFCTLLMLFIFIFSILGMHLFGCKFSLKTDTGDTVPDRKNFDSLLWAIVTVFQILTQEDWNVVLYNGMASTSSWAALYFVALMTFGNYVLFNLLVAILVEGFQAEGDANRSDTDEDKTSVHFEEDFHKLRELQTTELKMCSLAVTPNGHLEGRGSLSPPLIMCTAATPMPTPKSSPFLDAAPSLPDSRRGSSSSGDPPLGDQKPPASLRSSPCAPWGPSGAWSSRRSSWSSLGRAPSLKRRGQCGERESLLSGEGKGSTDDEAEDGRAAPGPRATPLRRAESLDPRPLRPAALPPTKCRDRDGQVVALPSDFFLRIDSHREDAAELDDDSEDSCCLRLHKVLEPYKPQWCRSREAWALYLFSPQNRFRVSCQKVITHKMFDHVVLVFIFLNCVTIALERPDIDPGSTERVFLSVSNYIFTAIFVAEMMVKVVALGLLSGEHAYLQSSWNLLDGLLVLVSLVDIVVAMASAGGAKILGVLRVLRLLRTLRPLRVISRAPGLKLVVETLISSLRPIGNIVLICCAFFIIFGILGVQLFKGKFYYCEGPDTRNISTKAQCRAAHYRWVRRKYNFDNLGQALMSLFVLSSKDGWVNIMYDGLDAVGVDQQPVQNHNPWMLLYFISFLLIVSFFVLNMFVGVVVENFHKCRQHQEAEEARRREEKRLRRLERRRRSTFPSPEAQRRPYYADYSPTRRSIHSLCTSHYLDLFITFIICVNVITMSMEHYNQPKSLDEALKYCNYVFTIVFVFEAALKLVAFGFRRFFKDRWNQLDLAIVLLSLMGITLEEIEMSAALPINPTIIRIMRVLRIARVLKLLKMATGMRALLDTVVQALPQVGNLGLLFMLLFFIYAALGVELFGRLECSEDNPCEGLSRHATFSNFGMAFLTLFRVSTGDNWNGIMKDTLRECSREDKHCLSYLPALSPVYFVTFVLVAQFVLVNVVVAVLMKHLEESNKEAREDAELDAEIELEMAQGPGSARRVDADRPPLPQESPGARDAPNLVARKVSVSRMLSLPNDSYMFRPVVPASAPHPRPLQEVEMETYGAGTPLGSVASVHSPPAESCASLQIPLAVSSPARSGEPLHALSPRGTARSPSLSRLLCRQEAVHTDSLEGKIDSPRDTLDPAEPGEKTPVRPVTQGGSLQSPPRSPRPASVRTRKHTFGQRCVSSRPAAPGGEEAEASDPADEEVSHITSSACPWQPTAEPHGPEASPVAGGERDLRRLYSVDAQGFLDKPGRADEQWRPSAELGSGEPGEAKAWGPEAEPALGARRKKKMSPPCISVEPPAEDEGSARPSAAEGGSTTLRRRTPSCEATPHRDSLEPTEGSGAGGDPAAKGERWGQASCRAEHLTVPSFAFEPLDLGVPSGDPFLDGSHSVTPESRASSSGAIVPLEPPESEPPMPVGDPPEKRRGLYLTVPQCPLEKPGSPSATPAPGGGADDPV
T4 sequence (Q9HC16 whole entry): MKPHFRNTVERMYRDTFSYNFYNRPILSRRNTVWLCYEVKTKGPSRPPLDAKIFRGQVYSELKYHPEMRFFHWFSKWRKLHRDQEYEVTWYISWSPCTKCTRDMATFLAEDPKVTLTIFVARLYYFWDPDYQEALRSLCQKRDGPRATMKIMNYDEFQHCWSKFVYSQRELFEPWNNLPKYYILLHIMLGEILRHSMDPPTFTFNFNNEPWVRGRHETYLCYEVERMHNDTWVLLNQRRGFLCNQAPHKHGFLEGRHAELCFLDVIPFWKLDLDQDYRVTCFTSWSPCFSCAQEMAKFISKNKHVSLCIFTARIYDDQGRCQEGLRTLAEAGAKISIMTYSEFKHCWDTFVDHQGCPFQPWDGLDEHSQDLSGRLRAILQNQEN
Sequence of Photoreceptor-specific nuclear receptor (Q9Y5X4 whole entry): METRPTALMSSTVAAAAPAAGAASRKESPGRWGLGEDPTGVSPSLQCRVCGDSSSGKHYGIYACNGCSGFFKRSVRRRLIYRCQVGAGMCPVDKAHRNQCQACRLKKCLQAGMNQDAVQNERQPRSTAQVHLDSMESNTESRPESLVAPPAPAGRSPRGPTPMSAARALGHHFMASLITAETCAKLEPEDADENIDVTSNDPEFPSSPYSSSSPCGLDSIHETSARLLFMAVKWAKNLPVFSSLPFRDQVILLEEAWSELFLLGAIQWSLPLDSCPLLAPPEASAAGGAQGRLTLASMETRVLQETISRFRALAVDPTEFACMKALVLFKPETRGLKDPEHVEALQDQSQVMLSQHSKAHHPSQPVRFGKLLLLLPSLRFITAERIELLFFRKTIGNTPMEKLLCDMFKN
Sequence of DNA dC->dU-editing enzyme APOBEC-3A (P31941 whole entry): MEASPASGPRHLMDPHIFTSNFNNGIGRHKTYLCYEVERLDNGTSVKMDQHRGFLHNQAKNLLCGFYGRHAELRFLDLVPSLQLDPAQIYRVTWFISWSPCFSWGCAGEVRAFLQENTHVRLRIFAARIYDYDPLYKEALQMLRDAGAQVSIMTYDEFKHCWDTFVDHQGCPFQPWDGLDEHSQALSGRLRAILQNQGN
Sequence of FAD-linked sulfhydryl oxidase ALR (P55789 whole entry): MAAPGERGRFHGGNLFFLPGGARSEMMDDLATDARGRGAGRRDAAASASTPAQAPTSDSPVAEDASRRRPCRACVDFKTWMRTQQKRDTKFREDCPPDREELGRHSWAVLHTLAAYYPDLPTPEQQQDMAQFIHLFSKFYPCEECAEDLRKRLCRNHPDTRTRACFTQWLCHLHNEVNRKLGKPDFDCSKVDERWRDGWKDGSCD

## Nc1ccc(-c2nc3c(Cl)cc(N)cc3[nH]2)cc1
[1]
  EC50: 9.81 µM (active)
[2]
  EC50: < 0.2 µM (active)
[3]
  EC50: 210 nM (active)
[4]
  EC50: 7.08 µM (active)
Large T antigen
  IC50: 9.32 µM (active)
HT-1080
  EC50: > 50 µM (not active)
[5]
  AC50: 556 nM (active)
[6]
  AC50: 3.76 µM (active)

## CCOCCCNC(=O)c1cn(CC(C)C)c(=O)c2c1c1ccccc1n2C
[7]
  IC50: > 20 µM (inactive)

## CC(Sc1nnc(-c2cccs2)n1Cc1ccccc1)C(=O)NCc1ccc2c(c1)OCO2 (centres undefined)
[8]
  EC50: 9.04 µM (active)

## COc1ccc(NC(=O)c2cc3ccccn3n2)cc1
[2]
  EC50: 3.55 µM (active)
[9]
  EC50: 31.4 µM (active)
[10]
  EC50: > 112 µM (not active)
HT-1080
  EC50: 29.9 µM (active)

## CCSCCNC(=O)c1cc(-n2cnnc2)ccc1Cl
[11]
  IC50: 4.2 µM (active)
[12]
  IC50: 4.09 µM (active)

## CC(C(=O)N1c2ccccc2CCc2ccccc21)n1nnc(-c2ccc(N(C)C)cc2)n1 (centres undefined)
[8]
  EC50: 4.2 µM (active)

## Cc1ccc(-n2c(C)csc2=N)cc1
[13]
  EC50: 373 nM (active)
[14]
  EC50: < 100 nM (active)
[15]
  EC50: 102 nM (active)
H4
  EC50: 547 nM (active)
[16]
  EC50: 8.21 µM (active)
[17]
  EC50: 421 nM (active)

## COC(=O)CCCC[C@H]1SC[C@H]2NC(=O)N[C@]21O
[18]
  IC50: 0.389 µM (active)
[19]
  IC50: 1.92 µM (active)

## Cc1cc2cc(OCc3ccccc3)ccc2n1C
[13]
  EC50: 383 nM (active)
H4
  EC50: < 100 nM (active)
[16]
  EC50: 0.393 µM (active)
[17]
  EC50: 217 nM (active)
HeLa
  AC50: 97.8 µM (active)

## CCN1CCN(Cc2ccc(NC(=O)c3ccc(C)c(NC(=O)c4cc(-c5ccc(Br)cc5)[nH]n4)c3)cc2C(F)(F)F)CC1
[20]
  EC50: 1.53 µM (active)
[21]
  EC50: > 30 µM (not active)
[22]
  AC50: 3.4 µM (active)
[7]
  IC50: > 20 µM (inactive)
HEK293
  AC50: 741 nM (active)

## Cc1noc(C)c1CSc1nc2cc(S(=O)(=O)N3CCOCC3)ccc2o1
[23]
  IC50: 50.7 µM (active)

## Cc1ccc(C)c(N2CCN(C(c3ccc(N(C)C)cc3)c3nnnn3C(C)(C)C)CC2)c1 (centres undefined)
[8]
  EC50: 4.2 µM (active)
Protein skinhead-1
  IC50: > 100 µM (inactive)

## O=C(COc1ccc(CO)cc1Cl)Nc1ccc(F)cc1
[2]
  EC50: > 100 µM (not active)
HT-1080
  EC50: > 50 µM (not active)

## CCC(Sc1nc(O)c(C#N)c(-c2ccccc2)n1)C(=O)Nc1cc(C)on1 (centres undefined)
[18]
  IC50: > 39.8 µM (not active)
[19]
  IC50: 4.41 µM (active)

## COc1ccc(CCNC(=O)C2CCCN(Cc3nc(-c4cccc(Cl)c4)oc3C)C2)cc1OC (centres undefined)
[20]
  EC50: 0.145 µM (active)
[21]
  EC50: > 60 µM (not active)
[8]
  EC50: 5.34 µM (active)
Cytochrome P450 1A2
  AC50: 15.8 µM (inconclusive)
Cytochrome P450 2C9
  AC50: 6.31 µM (inconclusive)

## COc1ccc(CSCC(=O)N/N=C/c2ccc(OCC(=O)N3CCCCC3)cc2)cc1
[11]
  IC50: 5.86 µM (active)
[12]
  IC50: 6.1 µM (active)
